Data on 40 compounds can be found in US20230174523A1, “BENZENESULFONAMIDE DERIVATIVES AS TRAP1 MODULATORS AND USES THEREOF” (Amathus Therapeutics, Inc., priority 2020, published 2023).

The target of experiment [1] is T1, TRAP1 enzyme (Homo sapiens, UniProt Q12931).
T1 sequence (Q12931 60-704): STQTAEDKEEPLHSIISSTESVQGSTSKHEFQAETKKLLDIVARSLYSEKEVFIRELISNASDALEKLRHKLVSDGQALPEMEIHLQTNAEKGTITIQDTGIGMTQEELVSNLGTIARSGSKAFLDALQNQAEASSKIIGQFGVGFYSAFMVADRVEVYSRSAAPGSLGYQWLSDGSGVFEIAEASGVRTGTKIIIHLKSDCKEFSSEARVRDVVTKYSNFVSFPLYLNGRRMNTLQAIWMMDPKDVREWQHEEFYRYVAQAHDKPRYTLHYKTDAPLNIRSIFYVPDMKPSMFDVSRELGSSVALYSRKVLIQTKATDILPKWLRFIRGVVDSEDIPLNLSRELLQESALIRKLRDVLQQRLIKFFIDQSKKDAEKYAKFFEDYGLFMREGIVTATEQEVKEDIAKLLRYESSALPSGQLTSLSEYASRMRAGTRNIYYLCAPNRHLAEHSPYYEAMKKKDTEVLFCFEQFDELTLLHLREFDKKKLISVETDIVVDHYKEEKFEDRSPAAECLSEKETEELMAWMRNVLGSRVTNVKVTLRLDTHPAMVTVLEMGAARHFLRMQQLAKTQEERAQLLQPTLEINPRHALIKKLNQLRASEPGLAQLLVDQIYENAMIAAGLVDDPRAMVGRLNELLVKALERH
Kind of experiment: Malachite green phosphate assay of TRAP1 ATPase activity. The class given is biochemical. Conditions: for EC50: TRAP1 ATPase activation, 150 nM Trap1, 20 μM ATP, geometric mean, read-out: Malachite Green Fluor DRC: GeoMean EC50; for Emax: read-out: Malachite Green Fluor DRC: Mean Emax. How it is done: The Potency of test compounds to modulate the ATPase activity of TRAP1 enzyme was evaluated using malachite green phosphatase assay. The assay is based on quantification of the green complex formed between Malachite Green, molybdate and inorganic phosphate generated in the phosphatase reaction. Assays were performed using a Malachite Green assay kit. All the assays were carried out in a 96-well transparent plate. The buffer used was 50 mM HEPES (pH 7.5), 20 mM KCl, 4 mM MgCl2 and 0.05% BSA. 150 nM Trap1 enzyme was incubated with various concentrations of the test compound (0.78 μM-100 μM) at 37° C. for 30 mins. 20 μM ATP was added to each well (except blank wells) to start the reaction and the plate was then incubated at 37° C. for 180 mins. 10 μl of the reaction volume of each sample was then transferred to a white 384-well proxiplate in quadruplets. 2.5 μl of Malachite Green reagent was added to all the wells and the plate was equilibrated for 15 mins. The reaction was stopped by adding 12% H2SO4 and the plate was read for fluorescence at 620 nm (λex=573 nm). The amount of phosphate released was estimated from a phosphate standard curve generated at the same experimental conditions. Emax (Maximal percent activation) and EC50 (concentration of test compound for half maximal activation) were estimated by fitting the dose response data to a sigmoidal curve fitting equation using Graphpad Prism software V.7.0.

The target of experiment [2] is T1, TRAP1 enzyme. Briefly: ADP Glo assay of TRAP1 ATPase activity. The experiment is classed as biochemical. Conditions: for EC50: TRAP1 ATPase activation, 150 nM Trap1, 20 μM ATP, geometric mean, read-out: ADP GLO DRC: GeoMean EC50; for Emax: read-out: ADP GLO DRC: Mean Emax. In short, it runs like this:
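150 nM TRAP1 preincubated with compound (0.79–100 μM) 30 min at 37° C in Pipes pH 7.5 buffer (0.05 mM MgCl2, 40 mM KCl), then 20 μM ATP added for 60 min at 37° C. ADP quantified by ADP-Glo luminescence against ATP/ADP standard curve. Emax and EC50 from sigmoidal fit.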

As to `COc1ccc(NC(=O)c2nc(Br)ccc2C)cc1S(=O)(=O)Nc1ccc(Cl)cc1` [Compound 537], in experiment [1], the EC50 was in the range of 10 to 20 µM and the Emax is 200 to 300%.

On to `COc1ccc(NC(=S)c2ncco2)cc1S(=O)(=O)Nc1ccc(Cl)cc1` [Compound 598, N-(3-(N-(4-chlorophenyl)sulfamoyl)-4-methoxyphenyl) oxazole-2-carbothioamide], for which, in experiment [1], the EC50 lay within 20 to 100 µM and the Emax fell in the range of 200 to 300%.

Regarding `CN(c1ccc(Br)cc1)S(=O)(=O)c1cc(NC(=O)c2cnc[nH]2)ccc1OCCCCCCO` [Compound 342], in experiment [1], the EC50 fell in the range of 20 to 100 µM and the Emax was in the range of 200 to 300%.

Regarding `C=C(C)c1nc(C(=O)Nc2ccc(OC)c(S(=O)(=O)Nc3ccc(Cl)cc3)c2)oc1-c1ccccc1` [Compound 545], in experiment [1], the EC50 was less than 10 µM and the Emax is 123 to 159%.

Consider `O=C(Nc1cccc(S(=O)(=O)N2CCOc3cc(F)ccc32)c1)c1ncco1` [Compound 377], for which, in experiment [1], the EC50 is 20 to 100 µM and the Emax fell in the range of 160 to 199%.

On to `CCOC(=O)Cc1ccc(NC(=O)c2cnccc2C)cc1S(=O)(=O)Nc1ccc(C)cc1` [Compound 317], for which, in experiment [1], the EC50 was in the range of 10 to 20 µM and the Emax fell in the range of 160 to 199%.

As for `Cc1ncoc1C(=O)Nc1cccc(S(=O)(=O)N2CCCc3cc(Cl)ccc32)c1` [Compound 429], in experiment [1], the EC50 lay in the range of 10 to 20 µM and the Emax is 200 to 300%.

Take `COc1ccc(NC(=O)c2nnc(-c3ccccc3)s2)cc1S(=O)(=O)Nc1ccc(Cl)cc1` [Compound 500]: in experiment [1], the EC50 fell in the range of 10 to 20 µM and the Emax was 200 to 300%.

`Cc1ccc2c(c1)CCN2S(=O)(=O)c1cccc(NC(=O)c2ocnc2C)c1` [Compound 407]: in experiment [1], the EC50 lay within 20 to 100 µM and the Emax lay within 200 to 300%.

As to `COc1ccc(NC(=O)c2cnc(-c3ccccc3)o2)cc1S(=O)(=O)Nc1c(Cl)cccc1Cl` [Compound 662], in experiment [1], the EC50 is 10 to 20 µM and the Emax was 160 to 199%.

For `O=C(Nc1ccc(OCCCCCCO)c(S(=O)(=O)Nc2ccc(Br)cc2)c1)c1cnc[nH]1` [Compound 274], in experiment [1], the EC50 is 10 to 20 µM and the Emax is 200 to 300%.

`COc1ccc(NC(=O)c2cnc(Cl)cc2Cl)cc1S(=O)(=O)Nc1c(C)cccc1C` [Compound 1082]: in experiment [2], the EC50 lay in the range of 20 to 100 µM and the Emax is 200 to 300%.

Consider `COc1ccc(NC(=O)c2csc(-c3cccs3)n2)cc1S(=O)(=O)Nc1c(C)cccc1C` [Compound 1136], for which, in experiment [2], the EC50 is less than 10 µM and the Emax was 160 to 199%.

As to `COc1cc(C#N)cc(C(=O)Nc2ccc(OC)c(S(=O)(=O)Nc3c(C)cccc3C)c2)c1` [Compound 1090], in experiment [2], the EC50 was less than 10 µM and the Emax was in the range of 160 to 199%.

Take `COc1ccc(NC(=O)c2n[nH]c3c2CCCC3)cc1S(=O)(=O)Nc1c(C)cccc1C` [Compound 1235]: in experiment [2], the EC50 was in the range of 10 to 20 µM and the Emax lay within 200 to 300%.

For the compound `COc1ccc(NC(=O)c2cncc(Br)c2C)cc1S(=O)(=O)Nc1c(C)cccc1C` [Compound 1107], in experiment [2], the EC50 was in the range of 10 to 20 µM and the maximal response (Emax) was in the range of 200 to 300%.

Take `COc1ccc(NC(=O)c2cnn(-c3ccc(Cl)cc3)c2C)cc1S(=O)(=O)Nc1c(C)cccc1C` [Compound 1110]: in experiment [2], the 50% effective concentration (EC50) was less than 10 µM and the Emax is 160 to 199%.

Turning to `COc1cc(C(=O)Nc2ccc(F)c(S(=O)(=O)Nc3ccc(Cl)cc3)c2)cc(Cl)c1OC` [Compound 775], in experiment [2], the EC50 fell in the range of 10 to 20 µM and the Emax was 123 to 159%.

For the compound `COc1ccc(NC(=O)c2ccc(-n3cccn3)cc2Cl)cc1S(=O)(=O)Nc1c(C)cccc1C` [Compound 1019], in experiment [2], the EC50 was less than 10 µM and the Emax was in the range of 160 to 199%.

Turning to `COc1ccc(NC(=O)c2cccc(Cc3ccc(F)cc3)c2)cc1S(=O)(=O)Nc1c(C)cccc1C` [Compound 1036], in experiment [2], the EC50 was less than 10 µM and the Emax is 123 to 159%.

On to `COc1ccc(NC(=O)c2ccc(Br)nc2F)cc1S(=O)(=O)Nc1c(C)cccc1C` [Compound 1131], for which, in experiment [2], the EC50 lay in the range of 20 to 100 µM and the Emax was in the range of 123 to 159%.

For the compound `COc1ccc(NC(=O)c2csc(-c3ccccc3)n2)cc1S(=O)(=O)Nc1c(C)cccc1C` [Compound 1116], in experiment [2], the EC50 was less than 10 µM and the Emax lay within 160 to 199%.

In the case of `Cc1cc(C(=O)Nc2ccc(F)c(S(=O)(=O)Nc3ccc(Cl)cc3)c2)c2c(C)noc2n1` [Compound 736], in experiment [2], the half-maximal effective concentration (EC50) was in the range of 20 to 100 µM and the Emax fell in the range of 200 to 300%.

`COc1ccc(NC(=O)c2cccc(-c3ccccn3)c2)cc1S(=O)(=O)Nc1c(C)cccc1C` [Compound 1271]: in experiment [2], the EC50 is less than 10 µM and the Emax was 160 to 199%.

In the case of `COc1ccc(NC(=O)c2cccc3ccoc23)cc1S(=O)(=O)Nc1c(C)cccc1C` [Compound 1094], in experiment [2], the half-maximal effective concentration (EC50) was less than 10 µM and the Emax lay within 200 to 300%.

For the compound `COc1ccc(NC(=O)c2cccc3cnccc23)cc1S(=O)(=O)Nc1c(C)cccc1C` [Compound 1224], in experiment [2], the EC50 lay in the range of 20 to 100 µM and the Emax fell in the range of 160 to 199%.

Turning to `Cn1ncc(C(=O)Nc2ccc(F)c(S(=O)(=O)Nc3ccc(Cl)cc3)c2)c1-n1cccc1` [Compound 817], in experiment [2], the EC50 is 20 to 100 µM and the Emax fell in the range of 160 to 199%.

As for `N#Cc1ccc(C(=O)Nc2ccc(F)c(S(=O)(=O)Nc3ccc(Cl)cc3)c2)c(C(F)(F)F)n1` [Compound 827], in experiment [2], the 50% effective concentration (EC50) lay in the range of 20 to 100 µM and the Emax was in the range of 123 to 159%.

With `COc1ccc(NC(=O)c2ccc(C)nc2OC)cc1S(=O)(=O)Nc1ccc(Cl)cc1` [Compound 1963], in experiment [2], the EC50 was in the range of 20 to 100 µM and the Emax lay in the range of 160 to 199%.

As to `COc1ccc(NC(=O)c2cc(-c3ccccc3)[nH]n2)cc1S(=O)(=O)Nc1c(C)cccc1C` [Compound 1258], in experiment [2], the EC50 was less than 10 µM and the Emax fell in the range of 200 to 300%.

Turning to `COc1ccc(NC(=O)c2cnc(-c3ccccc3)[nH]2)cc1S(=O)(=O)N(CCCCCCN)c1ccc(Br)cc1` [Compound 454, N-(3-(N-(6-aminohexyl)-N-(4-bromophenyl)sulfamoyl)-4-methoxyphenyl)-2-phenyl-1H-imidazole-5-carboxamide], in experiment [2], the EC50 is less than 10 µM and the Emax lay in the range of 160 to 199%.

For `COc1ccc(NC(=O)c2ccncc2-c2ccccc2)cc1S(=O)(=O)Nc1c(C)cccc1C` [Compound 1267], in experiment [2], the EC50 is 20 to 100 µM and the Emax is 123 to 159%.

Regarding `COc1ccc(NC(=O)c2cnc(-c3ccccc3C)[nH]2)cc1S(=O)(=O)Nc1ccc(Cl)cc1` [Compound 1971], in experiment [2], the EC50 was less than 10 µM and the maximal effect (Emax) fell in the range of 200 to 300%.

For the compound `O=C(Nc1ccc(F)c(S(=O)(=O)Nc2ccc(Cl)cc2)c1)c1cnc(Cl)cc1Cl` [Compound 815], in experiment [2], the EC50 lay in the range of 10 to 20 µM and the Emax lay in the range of 123 to 159%.

As to `Cc1nc(C(=O)Nc2ccc(F)c(S(=O)(=O)Nc3ccc(Cl)cc3)c2)nn1-c1ccc(F)cc1` [Compound 835], in experiment [2], the EC50 lay within 10 to 20 µM and the Emax was in the range of 123 to 159%.

Consider `COc1ccc(NC(=O)c2ncc(-c3ccccc3)o2)cc1S(=O)(=O)Nc1c(C)csc1C` [Compound 1693], for which, in experiment [2], the EC50 is less than 10 µM and the Emax is 160 to 199%.

Consider `COc1ccc2oc(C(=O)Nc3ccc(OC)c(S(=O)(=O)Nc4c(C)cccc4C)c3)cc2c1` [Compound 1112], for which, in experiment [2], the EC50 is less than 10 µM and the Emax was 160 to 199%.

For `COc1ccc(NC(=O)c2sc(Br)nc2C)cc1S(=O)(=O)Nc1c(C)cccc1C` [Compound 1115], in experiment [2], the EC50 was in the range of 10 to 20 µM and the Emax was 200 to 300%.

In the case of `COc1ccc(NC(=O)c2ccc3ncn(C)c3c2)cc1S(=O)(=O)Nc1c(C)cccc1C` [Compound 1238], in experiment [2], the EC50 lay within 20 to 100 µM and the Emax was in the range of 123 to 159%.

`COc1ccc(NC(=O)c2cnn(Cc3ccccc3)c2)cc1S(=O)(=O)Nc1c(C)cccc1C` [Compound 1068]: in experiment [2], the 50% effective concentration (EC50) was less than 10 µM and the Emax lay within 200 to 300%.
